Results from EPA's ToxRefDB 2.

Experiments:
[1] = system: mouse; conditions: Multigenerational reproductive toxicity study, cd1, Oral, Feed, dose end: 1 generation
[2] = system: rat; conditions: Multigenerational reproductive toxicity study, sprague dawley, Oral, Feed, dose end: 2 generation
[3] = system: rat; conditions: Multigenerational reproductive toxicity study, sprague dawley, Oral, Feed, dose end: 2 generation; remark: listed apart in the source
[4] = system: rabbit; conditions: Prenatal developmental toxicity study, dutch, Oral, Gavage/Intubation, dose end: 19 GD
[5] = system: rat; conditions: Peri- and post-natal toxicity study (Segment III), sprague dawley, Oral, Gavage/Intubation, dose end: 40 PND
[6] = group: parental, systemic / in life observation / body weight / body weight + systemic / organ weight / kidney / nos + systemic / organ weight / liver / nos…
[7] = group: reproductive, reproductive / reproductive performance / fertility / fertility + reproductive / offspring survival early / live fetuses / live fetuses
[8] = group: reproductive, reproductive / reproductive performance / fertility / fertility + reproductive / offspring survival early / live fetuses / live fetuses + …
[9] = group: offspring, systemic / in life observation / body weight / offspring (pup) weight
[10] = group: parental, systemic / organ weight / ovary / nos
[11] = group: reproductive, reproductive / reproductive performance / gestational length / gestational length
[12] = group: offspring, developmental / offspring survival late / [other] / [other] + systemic / in life observation / body weight / offspring (pup) weight
[13] = group: parental, systemic / in life observation / body weight / body weight + systemic / organ weight / ovary / nos
[14] = group: parental, systemic / in life observation / body weight / body weight + systemic / organ weight / ovary / nos + systemic / pathology microscopic / …
[15] = group: reproductive, reproductive / reproductive performance / fertility / fertility
[16] = group: reproductive, reproductive / reproductive performance / fertility / fertility + reproductive / reproductive performance / estrous cycle / corpora lutea
[17] = group: cholinesterase, cholinesterase / cholinesterase / cholinesterase / brain cholinesterase (che) + cholinesterase / cholinesterase / cholinesterase / …
[18] = group: developmental, developmental / developmental malformation / bone / incomplete ossification
[19] = group: maternal, reproductive / reproductive performance / resorptions / resorptions + systemic / in life observation / clinical signs / abnormal feces
[20] = group: maternal, reproductive / reproductive performance / estrous cycle / corpora lutea
[21] = group: parental, systemic / pathology microscopic / ovary / follicle count + systemic / pathology microscopic / uterus / thickened

With `CCCCCOC(=O)c1ccccc1C(=O)OCCCCC` [Dipentyl phthalate] the NEL ([1]; group: parental, systemic / in life observation / body weight / body weight + systemic / organ weight / kidney / nos + systemic / organ weight / liver / nos) was 2.16 mg/kg/day, the LEL [1, 6] was 4.79 mg/kg/day and the LOAEL [1, 6] was > 4.79 mg/kg/day. For the same compound, the NOAEL [1, 6] was ≥ 4.79 mg/kg/day, the LEL [1, 7] was 0.76 mg/kg/day and the NEL [1, 7] was < 0.76 mg/kg/day. For the same compound, the LOAEL [1, 8] was > 4.79 mg/kg/day and the NOAEL [1, 8] was ≥ 4.79 mg/kg/day.

`CC1(C)CCC(Cc2ccc(Cl)cc2)C1(O)Cn1cncn1` (configuration not stated) [Metconazole] was tested, and the LEL [2, 9] was 32 mg/kg/day, the LOAEL [2, 9] was 32 mg/kg/day and the NEL [2, 9] was 8 mg/kg/day. It also gave an NOAEL [2, 9] of 8 mg/kg/day, an LEL [2, 10] of 32 mg/kg/day and an LOAEL [2, 10] of 32 mg/kg/day. The NEL [2, 10] was 8 mg/kg/day, the NOAEL [2, 10] was 8 mg/kg/day and the LEL [2, 11] was 32 mg/kg/day. For the same compound, the LOAEL [2, 11] was > 32 mg/kg/day, the NEL [2, 11] was 8 mg/kg/day and the NOAEL [2, 11] was ≥ 32 mg/kg/day.

Compound `CCS(=O)CCSP(=O)(OC)OC` (configuration not stated) [Oxydemeton-methyl] has an LEL [3, 12] of 2.1 mg/kg/day, an LOAEL [3, 12] of 2.1 mg/kg/day and an NEL [3, 12] of 0.38 mg/kg/day. The NOAEL [3, 12] was 0.38 mg/kg/day, the NEL [3, 13] was 0.38 mg/kg/day and the NOAEL [3, 13] was 0.38 mg/kg/day. The LEL [3, 14] was 2.1 mg/kg/day, the LOAEL [3, 14] was 2.1 mg/kg/day and the NEL [3, 15] was 0.38 mg/kg/day. For the same compound, the NOAEL [3, 15] was 0.38 mg/kg/day, the LEL [3, 16] was 2.1 mg/kg/day and the LOAEL [3, 16] was 2.1 mg/kg/day. The LEL [4, 17] was 1.6 mg/kg/day, the LOAEL [4, 17] was 1.6 mg/kg/day and the NEL [4, 17] was 0.4 mg/kg/day. For the same compound, the NOAEL [4, 17] was 0.4 mg/kg/day, the LEL [4, 18] was 0.1 mg/kg/day and the LOAEL [4, 18] was 0.1 mg/kg/day. The NEL [4, 18] was < 0.1 mg/kg/day, the NOAEL [4, 18] was < 0.1 mg/kg/day and the LOAEL [4, 19] was > 1.6 mg/kg/day. For the same compound, the NEL [4, 19] was 0.1 mg/kg/day, the NOAEL [4, 19] was ≥ 1.6 mg/kg/day and the LEL ([4]; group: maternal, systemic / in life observation / clinical signs / abnormal feces) was 0.4 mg/kg/day.

With `CC(C)COC(=O)c1ccc(O)cc1` [Isobutylparaben] the LEL [5, 20] was 62.5 mg/kg/day, the LOAEL [5, 20] was > 1000 mg/kg/day and the NEL [5, 20] was < 62.5 mg/kg/day. For the same compound, the NOAEL [5, 20] was ≥ 1000 mg/kg/day, the LEL [5, 21] was 62.5 mg/kg/day and the LOAEL [5, 21] was > 1000 mg/kg/day. The NEL [5, 21] was < 62.5 mg/kg/day and the NOAEL [5, 21] was ≥ 1000 mg/kg/day.
